Assay results: patent US20260315653A1, “ANTICOAGULANT COMPOSITIONS COMPRISING ANTI-PLATELET AND ANTI-INFLAMMATORY DRUGS AND METHODS AND DEVICES FOR THEIR USE” (Elixir Medical Corporation, priority 2023, published 2026)

Legend:
[1] = In-vitro elution of coated stents in 0.01M phosphate buffered saline at 37° C. (HPLC); format: physicochemical; details: 5 min
Experimental: (§1) In-Vitro Elution evaluation of the EDTA coated stent above prepared was performed in 0.01M phosphate buffered saline at 37° C. water shaking bath then tested on High Performance Liquid Chromatography (HPLC). EDTA was separated from interfering peaks by a Carbon18 reverse phase column and quantified with an external EDTA calibration standard solution prepared at similar concentrations. The percentage of EDTA eluted was calculated during each time point.
as §1, with “of Tetra acetoxymethyl ester” for “of the”, “stent” for “stent above prepared”, “(HPLC). Tetra acetoxymethyl ester” for “(HPLC).”, “external tetra acetoxymethyl ester” for “external”, “of tetra acetoxymethyl ester” for “of”
In-Vitro Elution evaluation of the EDTA complex coated stent was performed in 0.01M phosphate buffered saline at 37° C. water shaking bath then tested on High Performance Liquid Chromatography (HPLC). EDTA disodium was separated from interfering peaks by a Carbon18 reverse phase column and quantified with an external EDTA disodium calibration standard solution prepared at similar concentrations. […]

[2] = pH of 1 mg/ml EDTA or analogue in water or phosphate buffer; format: physicochemical
Description: Based on the pH of EDTA or analogues in water and in 0.1M phosphate buffered saline as show in Table 2, EDTA disodium salt or dipotassium salt has a pH close to neutral pH in human body (6.42-6.92), whereas EDTA tetrasodium or trisodium has a very basic pH (>8.0) in human body. EDTA disodium or dipotassium is preferred in the examples.

[3] = as above; format: physicochemical; details: 1 mg/ml in 0.01 M pH 7.4 phosphate buffer; 21.8-22.3 ° C.; listed as EDTA tetra sodium
[4] = tested on: blood clotting (fresh pig blood); assay: Activated clotting time (ACT) of EDTA or analogues in fresh pig blood (Example 12); details: for Increase in clotting time compared to control: control 154 sec
Experimental: The activated clotting time (ACT) evaluation of EDTA or analogues was performed in fresh pig blood and recorded employing the Hemochron® Response device.
The ACT measurements were made in fresh pig blood. 1.0 ml of fresh pig blood was added to a test tube containing an activator (Hemochron@Celite@ ACT tubes, Lot F8FTE026 from Accriva Diagnostics, Inc.). A target amount of drug solution was then added into the test tube. The test tube was gently swirled so that the blood and drug was well-mixed. 0.1 ml of 0.3M calcium chloride was then added. The tube was gently shaken before being inserted into the Hemochron Response detector. The ACT read out was recorded and reported. The ACT of the control blood in the absence of any drug as first determined to establish a baseline. Then ACT was determined in the presence of different concentrations of EDTA or analogues as a single component.

Cumulative percent release of EDTA [1]: about 99.8%
pH ([2]; 1 mg/ml in d-water, 21.8-22.0 ° C., listed as EDTA tetra sodium): 9.61
pH ([2]; in water and phosphate buffered saline, listed as EDTA tetrasodium): > 8.0
pH [3]: 8.27
Compound: O=C(O)CN(CCN(CC(=O)O)CC(=O)O)CC(=O)O [EDTA•4Na•xH2O]
Clotting time (ACT) ([4]; 100 ng/mg): 204 s
Increase in clotting time compared to control ([4]; 100 ng/mg): 50 s
Clotting time (ACT) ([4]; 200 ng/mg): 275 s
Increase in clotting time compared to control ([4]; 200 ng/mg): 121 s
Clotting time (ACT) ([4]; 250 ng/mg): 329 s
Increase in clotting time compared to control ([4]; 250 ng/mg): 175 s
Clotting time (ACT) ([4]; 300 ng/mg): >500 s
Increase in clotting time compared to control ([4]; 300 ng/mg): >346 s
blood coagulation compared to the blood control ([4]; EDTA 200 ng/mg, sodium salts 300 ng/mg, listed as EDTA tetra sodium salt): The same trend
